Results taken from patent US10995101B2, “2-oxo-thiazole derivatives as A2A inhibitors and compounds for use in the treatment of cancers” (iTeos Therapeutics SA, priority 2017, dated 2021).

Columns and labels:
A2A receptor = A2A receptor (Homo sapiens, UniProt P29274); assay: Inhibition of cAMP production in HEK cells; format: cell-based; conditions: HEK-293 cells with A2A receptor
in vitro = conditions: human, Caco-2, pH 7.4
Experimental: 2 μM dosing solutions for reference compounds and test compounds are prepared by spiking the appropriate volume of intermediate solution to TB with and without 1 μM Zosuquidar. The final concentration of DMSO is no more than 1% (v/v).
Caco-2 cells are grown in MEM supplemented with 2 mM L-glutamine, 10% FBS, 100 U/mL penicillin-G and 100 μg/mL streptomycin. The cells are incubated at 37° C., 5% CO2 and relatively saturated humidity. After reaching 80-90% confluency, the cells are gently detached with 0.05% trypsin-EDTA solution.
TB and dosing solutions were pre-warmed to 37° C. before transport assay. The cell monolayer was washed twice with HBSS containing 10 mM HEPES. For A-B (apical to basolateral) directional transport assay, 75 μL dosing solution is added to the apical well. Fill each basolateral well with 250 μL TB. For B-A (basolateral to apical) directional transport assay, 250 μL of dosing solution is added to the basolateral well after filling each apical well with 75 μL TB. […] The plates are incubated for 120 minutes at 37° C. with 5% CO2 and saturated humidity. The time zero samples are generated by mixing 50 μL initial dosing solution of test compound or reference compound with 100 μL TB and 250 μL quench solution (acetonitrile (ACN) or other appropriate solvent with internal standard(s), based on the bioanalytical method development). At 120 minutes, 150 μL of solution is collected from each A-B receiver well followed by addition of 250 μL quench solution to get A-B receiver sample. And for other samples (A-B donor, B-A donor and receiver), 50 μL of solution is collected from each corresponding well followed by addition of 250 μL quench solution and 100 μL TB. All samples are vortex-mixed and centrifuged at 3220 g for 20 minutes. Subsequently, supernatant is diluted with ultra pure water for LC-MS/MS analysis. The concentrations of test compound in all samples are determined by LC-MS/MS and expressed as peak area ratio of analyte to internal standard.
The concentration of samples is expressed using the peak area ratio of Analyte to Internal Standard (Analyte/IS).
The efflux ratio is calculated using the following equation: Efflux ratio=Papp(A−B)/Papp(B−A) • where Papp (A−B) and Papp (B−A) are the Papp values of compound in Apical to Basolateral and Basolateral to Apical directional transport, respectively.

[1] = IC50 (nM) (3 nM NECA as agonist, 0.1% BSA), 3 nM NECA as agonist, 0.1% BSA
[2] = IC50 (nM) (5 nM NECA as agonist, 2% HSA), 5 nM NECA as agonist, 2% HSA
[3] = IC50 (nM) (5 μM Adenosine as agonist, 2.0% HSA), 5 μM Adenosine as agonist, 2.0% HSA

A2A receptor, sequence (P29274 whole entry): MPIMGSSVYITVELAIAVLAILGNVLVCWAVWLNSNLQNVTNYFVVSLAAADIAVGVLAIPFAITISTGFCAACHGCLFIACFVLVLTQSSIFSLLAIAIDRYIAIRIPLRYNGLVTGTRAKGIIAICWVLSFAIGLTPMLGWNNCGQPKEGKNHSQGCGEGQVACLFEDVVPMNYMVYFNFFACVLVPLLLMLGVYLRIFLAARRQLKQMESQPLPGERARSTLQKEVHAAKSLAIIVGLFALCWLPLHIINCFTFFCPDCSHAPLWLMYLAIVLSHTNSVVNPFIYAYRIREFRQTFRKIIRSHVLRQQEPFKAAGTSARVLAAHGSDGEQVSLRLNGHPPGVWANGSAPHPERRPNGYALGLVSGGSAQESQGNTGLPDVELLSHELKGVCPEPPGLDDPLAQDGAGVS

SMILES | IC50 (A2A receptor; [1]) [nM] | IC50 (A2A receptor; [2]) [nM] | IC50 (A2A receptor; [3]) [nM] | efflux ratio at 120 min, 2 μM (in vitro)
Cn1cnc(COc2cc(N3CCN(CCn4c(=O)sc5c4nc(N)n4nc(-c6ccco6)nc54)CC3)c(F)cc2F)n1 [Compound 68, 5-amino-3-(2-(4-(2,4-difluoro-5-((1-methyl-1H-1,2,4-triazol-3-yl)methoxy)phenyl)piperazin-1-yl)ethyl)-8-(furan-2-yl)thiazolo[5,4-e][1,2,4]triazolo[1,5-c]pyrimidin-2(3H)-one] | 14 | 123 | 2700 | 108
CN(CCNC(=O)c1ccc(N2CCN(CCn3c(=O)sc4c3nc(N)n3nc(-c5ccco5)nc43)CC2)c(F)c1)C1COC1 [Compound 69, 4-(4-(2-(5-amino-8-(furan-2-yl)-2-oxothiazolo[5,4-e][1,2,4]triazolo[1,5-c]pyrimidin-3(2H)-yl)ethyl)piperazin-1-yl)-3-fluoro-N-(2-(methyl(oxetan-3-yl)amino)ethyl)benzamide] | 0.5 | 5 | 211 | 201
Nc1nc2c(sc(=O)n2CCN2CCN(c3ccc(C(=O)NCCNCCO)cc3F)CC2)c2nc(-c3ccco3)nn12 [Compound 70, 4-(4-(2-(5-amino-8-(furan-2-yl)-2-oxothiazolo[5,4-e][1,2,4]triazolo[1,5-c]pyrimidin-3(2H)-yl)ethyl)piperazin-1-yl)-3-fluoro-N-(2-((2-hydroxyethyl)amino)ethyl)benzamide] | 0.6 | 3 | 124 | 53
NCC(=O)NCCOc1ccc(N2CCN(CCn3c(=O)sc4c3nc(N)n3nc(-c5ccco5)nc43)CC2)c(F)c1 [Compound 71, 2-amino-N-(2-(4-(4-(2-(5-amino-8-(furan-2-yl)-2-oxothiazolo[5,4-e][1,2,4]triazolo[1,5-c]pyrimidin-3(2H)-yl)ethyl)piperazin-1-yl)-3-fluorophenoxy)ethyl)acetamide] | 0.4 | 3 | 79 | 28
CC(C)[C@H](N)C(=O)NCCOc1ccc(N2CCN(CCn3c(=O)sc4c3nc(N)n3nc(-c5ccco5)nc43)CC2)c(F)c1 [Compound 72, (S)-2-amino-N-(2-(4-(4-(2-(5-amino-8-(furan-2-yl)-2-oxothiazolo[5,4-e][1,2,4]triazolo[1,5-c]pyrimidin-3(2H)-yl)ethyl)piperazin-1-yl)-3-fluorophenoxy)ethyl)-3-methylbutanamide] | 1 | 3 | 86 | 21
N#CCOc1cc(N2CCN(CCn3c(=O)sc4c3nc(N)n3nc(-c5ccco5)nc43)CC2)c(F)cc1F [Compound 74, 2-(5-(4-(2-(5-amino-8-(furan-2-yl)-2-oxothiazolo[5,4-e][1,2,4]triazolo[1,5-c]pyrimidin-3(2H)-yl)ethyl)piperazin-1-yl)-2,4-difluorophenoxy)acetonitrile] | 1.2 | 20 | 495 | 4
CS(=O)(=O)CCOc1cc(N2CCN(CCn3c(=O)sc4c3nc(N)n3nc(-c5ccco5)nc43)CC2)c(F)cc1F [Compound 77, 5-amino-3-(2-(4-(2,4-difluoro-5-(2-(methylsulfonyl)ethoxy)phenyl)piperazin-1-yl)ethyl)-8-(furan-2-yl)thiazolo[5,4-e][1,2,4]triazolo[1,5-c]pyrimidin-2(3H)-one] | 0.5 | 3 | 158 | 43
CS(=O)(=O)CCOc1ccc(N2CCN(CCn3c(=O)sc4c3nc(N)n3nc(-c5ccco5)nc43)CC2)c(F)c1 [Compound 78, 5-amino-3-(2-(4-(2-fluoro-4-(2-(methylsulfonyl)ethoxy)phenyl)piperazin-1-yl)ethyl)-8-(furan-2-yl)thiazolo[5,4-e][1,2,4]triazolo[1,5-c]pyrimidin-2(3H)-one] | 0.6 | – | 130 | 45
Nc1nc2c(sc(=O)n2CCN2CCN(c3cc4c(cc3F)NC(=O)C4)CC2)c2nc(-c3ccco3)nn12 [Compound 79, 5-amino-3-(2-(4-(6-fluoro-2-oxoindolin-5-yl)piperazin-1-yl)ethyl)-8-(furan-2-yl)thiazolo[5,4-e][1,2,4]triazolo[1,5-c]pyrimidin-2(3H)-one] | 0.3 | – | 77 | 47
CS(=N)(=O)c1ccc(N2CCN(CCn3c(=O)sc4c3nc(N)n3nc(-c5ccco5)nc43)CC2)c(F)c1 (stereo not shown) [Compound 80, 5-amino-3-(2-(4-(2-fluoro-4-(S-methylsulfonimidoyl)phenyl)piperazin-1-yl)ethyl)-8-(furan-2-yl)thiazolo[5,4-e][1,2,4]triazolo[1,5-c]pyrimidin-2(3H)-one] | 0.4 | – | 146 | 149
Cc1cc(N2CCN(CCn3c(=O)sc4c3nc(N)n3nc(-c5ccco5)nc43)CC2)c(F)cn1 [Compound 82, 5-amino-3-(2-(4-(5-fluoro-2-methylpyridin-4-yl)piperazin-1-yl)ethyl)-8-(furan-2-yl)thiazolo[5,4-e][1,2,4]triazolo[1,5-c]pyrimidin-2(3H)-one] | 0.2 | – | 15 | 3
Nc1nc2c(sc(=O)n2CCN2CCN(c3ccc(O[C@@H]4COC[C@H]4O)cc3F)CC2)c2nc(-c3ccco3)nn12 [Compound 83, 5-amino-3-(2-(4-(2-fluoro-4-(((3R,4R)-4-hydroxytetrahydrofuran-3-yl)oxy)phenyl)piperazin-1-yl)ethyl)-8-(furan-2-yl)thiazolo[5,4-e][1,2,4]triazolo[1,5-c]pyrimidin-2(3H)-one] | 0.4 | – | 212 | 29
Nc1nc2c(sc(=O)n2CCN2CCN(c3ccc(O[C@H]4COC[C@@H]4O)cc3F)CC2)c2nc(-c3ccco3)nn12 [Compound 84, 5-amino-3-(2-(4-(2-fluoro-4-(((3S,4S)-4-hydroxytetrahydrofuran-3-yl)oxy)phenyl)piperazin-1-yl)ethyl)-8-(furan-2-yl)thiazolo[5,4-e][1,2,4]triazolo[1,5-c]pyrimidin-2(3H)-one] | 0.1 | – | 71 | 24
CC(C)(O)COc1ccc(N2CCN(CCn3c(=O)sc4c3nc(N)n3nc(-c5ccco5)nc43)CC2)c(F)c1 [Compound 85, 5-amino-3-(2-(4-(2-fluoro-4-(2-hydroxy-2-methylpropoxy)phenyl)piperazin-1-yl)ethyl)-8-(furan-2-yl)thiazolo[5,4-e][1,2,4]triazolo[1,5-c]pyrimidin-2(3H)-one] | 0.4 | – | 220 | 5
CC(C)(O)c1ccc(N2CCN(CCn3c(=O)sc4c3nc(N)n3nc(-c5ccco5)nc43)CC2)c(F)c1 [Compound 86, 5-amino-3-(2-(4-(2-fluoro-4-(2-hydroxypropan-2-yl)phenyl)piperazin-1-yl)ethyl)-8-(furan-2-yl)thiazolo[5,4-e][1,2,4]triazolo[1,5-c]pyrimidin-2(3H)-one] | 0.6 | – | 747 | 5
Nc1nc2c(sc(=O)n2CCN2CCN(c3ccc(OCC(O)C(F)(F)F)cc3F)CC2)c2nc(-c3ccco3)nn12 (stereo not shown) [Compound 87, 5-amino-3-(2-(4-(2-fluoro-4-(3,3,3-trifluoro-2-hydroxypropoxy)phenyl)piperazin-1-yl)ethyl)-8-(furan-2-yl)thiazolo[5,4-e][1,2,4]triazolo[1,5-c]pyrimidin-2(3H)-one] | 1.1 | – | 432 | 7
Nc1nc2c(sc(=O)n2CCN2CCN(c3cc(OCCO)ccc3F)CC2)c2nc(-c3ccco3)nn12 [Compound 88, 5-amino-3-(2-(4-(2-fluoro-5-(2-hydroxyethoxy)phenyl)piperazin-1-yl)ethyl)-8-(furan-2-yl)thiazolo[5,4-e][1,2,4]triazolo[1,5-c]pyrimidin-2(3H)-one] | 0.2 | – | 22 | 19
Nc1nc2c(sc(=O)n2CCN2CCN(c3cc(OCC4CNCCO4)c(F)cc3F)CC2)c2nc(-c3ccco3)nn12 (stereo not shown) [Compound 89, 5-amino-3-(2-(4-(2,4-difluoro-5-(morpholin-2-ylmethoxy)phenyl)piperazin-1-yl)ethyl)-8-(furan-2-yl)thiazolo[5,4-e][1,2,4]triazolo[1,5-c]pyrimidin-2(3H)-one] | 0.6 | – | 9 | 456
Nc1nc2c(sc(=O)n2CCN2CCN(c3cc(OCC4COCCN4)c(F)cc3F)CC2)c2nc(-c3ccco3)nn12 (stereo not shown) [Compound 90, 5-amino-3-(2-(4-(2,4-difluoro-5-(morpholin-3-ylmethoxy)phenyl)piperazin-1-yl)ethyl)-8-(furan-2-yl)thiazolo[5,4-e][1,2,4]triazolo[1,5-c]pyrimidin-2(3H)-one] | 5.7 | – | 24 | 86
Nc1nc2c(sc(=O)n2CCN2CCN(c3cc(O[C@H]4CCNC4=O)c(F)cc3F)CC2)c2nc(-c3ccco3)nn12 [Compound 95, (S)-5-amino-3-(2-(4-(2,4-difluoro-5-((2-oxopyrrolidin-3-yl)oxy)phenyl)piperazin-1-yl)ethyl)-8-(furan-2-yl)thiazolo[5,4-e][1,2,4]triazolo[1,5-c]pyrimidin-2(3H)-one] | 0.7 | – | 37 | 137
Nc1nc2c(sc(=O)n2CCN2CCN(c3cc(O[C@@H]4CCNC4=O)c(F)cc3F)CC2)c2nc(-c3ccco3)nn12 [Compound 96, (R)-5-amino-3-(2-(4-(2,4-difluoro-5-((2-oxopyrrolidin-3-yl)oxy)phenyl)piperazin-1-yl)ethyl)-8-(furan-2-yl)thiazolo[5,4-e][1,2,4]triazolo[1,5-c]pyrimidin-2(3H)-one] | 0.4 | – | 19 | 118
